Here are results for 45 molecules from ChEMBL document CHEMBL3352043, “Discovery of small-molecule inhibitors selectively targeting the DNA-binding domain of the human androgen receptor” (J Med Chem, 2014).

Active and inactive are the calls of the source. The rule behind the calls is not given here.

In data set [1] the target is T1, Androgen receptor (Homo sapiens, UniProt P10275).
T1 sequence (P10275 whole entry): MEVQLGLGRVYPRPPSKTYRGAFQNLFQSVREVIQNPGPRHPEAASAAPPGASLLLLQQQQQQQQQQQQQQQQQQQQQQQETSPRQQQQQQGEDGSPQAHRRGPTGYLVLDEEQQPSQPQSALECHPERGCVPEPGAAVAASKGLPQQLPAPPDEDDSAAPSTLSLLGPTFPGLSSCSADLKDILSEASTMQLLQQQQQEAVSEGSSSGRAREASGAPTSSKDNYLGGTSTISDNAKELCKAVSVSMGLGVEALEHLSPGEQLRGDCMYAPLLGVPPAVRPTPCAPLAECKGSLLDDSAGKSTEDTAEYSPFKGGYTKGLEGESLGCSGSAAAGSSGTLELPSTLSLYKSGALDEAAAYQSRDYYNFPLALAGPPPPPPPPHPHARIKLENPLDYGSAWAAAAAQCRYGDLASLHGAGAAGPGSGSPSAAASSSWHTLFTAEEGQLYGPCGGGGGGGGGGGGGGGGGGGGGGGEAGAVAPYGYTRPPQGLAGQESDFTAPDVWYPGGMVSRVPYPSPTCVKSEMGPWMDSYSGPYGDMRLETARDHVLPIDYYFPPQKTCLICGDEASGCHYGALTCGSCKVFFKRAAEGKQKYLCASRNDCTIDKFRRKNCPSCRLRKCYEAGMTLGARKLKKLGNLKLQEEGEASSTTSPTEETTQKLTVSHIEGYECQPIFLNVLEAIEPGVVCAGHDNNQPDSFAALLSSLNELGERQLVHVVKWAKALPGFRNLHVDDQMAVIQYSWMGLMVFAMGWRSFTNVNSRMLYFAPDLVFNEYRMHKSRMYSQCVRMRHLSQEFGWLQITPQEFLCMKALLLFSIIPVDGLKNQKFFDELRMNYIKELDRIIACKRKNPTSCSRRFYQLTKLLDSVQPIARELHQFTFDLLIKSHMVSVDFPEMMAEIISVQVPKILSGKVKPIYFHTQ
Nature of the data set: Inhibition of androgen receptor in human LNCaP cells assessed as inhibition of prostate-specific antigen secretion into media after 3 days. In kind it is cell-based.

Data set [2] deals with T1, Androgen receptor. Kind of data set: Inhibition of androgen receptor transcriptional activity in human LNCaP cells after 3 days by eGFP assay. It is filed as cell-based.
The next data set deals with LNCaP. Kind of data set: Growth inhibition of AR-dependent human LNCAP cells at 0.001 to 3 uM after 3 days by MTS assay. In kind it is functional, cell-based.
A short description of data set [3]: Growth inhibition of AR-negative human PC3 cells after 3 days by MTS assay. The following applies: pc-3, 72 h. It is filed as cell-based.
The nature of data set [4]: Stability of the compound in RPMI plus 5% charcoal stripped serum media after 1 hr by MS analysis. In kind it is physicochemical.

In the case of `Clc1ccc(-c2csc(N3CCOCC3)n2)c(Cl)c1`, the IC50 was 1320 nM on Androgen receptor [1] and 1660 nM on Androgen receptor [2].

As to `Fc1ccc(-c2csc(N3CCOCC3)n2)cc1`, the IC50 on Androgen receptor [1] is 410 nM; on Androgen receptor [2], 650 nM. Consider `c1ccc(-c2cc(N3CCOCC3)cs2)cc1`, for which the figures for the IC50 on Androgen receptor [1] and against Androgen receptor [2] were 840 nM and 1240 nM, respectively. Regarding `Cc1ccc(C)c(-c2csc(N3CCOCC3)n2)c1`, the IC50 at Androgen receptor [1] is 520 nM; at Androgen receptor [2], 620 nM. `Clc1ccc(-c2csc(N3CCOCC3)n2)cc1Cl`: the IC50 on Androgen receptor [1] came to 2960 nM; against Androgen receptor [2], 3320 nM.

In the case of `FC(F)(F)[C@H]1CN(c2nc(-c3ccccc3)cs2)CCO1`, the values for the IC50 on Androgen receptor [1] and against Androgen receptor [2] were 160 nM and 1650 nM, respectively. Consider `Fc1ccc(-c2csc(-c3ccncc3)n2)cc1`, for which, at Androgen receptor [2], 1270 nM corresponded to half-maximal inhibition (IC50).

The molecule `OCc1sc(N2CCOCC2)nc1-c1ccccc1` came in with an IC50 on Androgen receptor [2] of 5040 nM. In the case of `Clc1c(Br)ncn1-c1csc(N2CCOCC2)n1`, the IC50 at Androgen receptor [1] worked out at 1280 nM; on Androgen receptor [2], 1450 nM.

For `Nc1nc(-c2ccc3ccccc3c2)cs1`, the IC50 at Androgen receptor [1] was found to be 10600 nM; against Androgen receptor [2], 9160 nM. Take `Cc1cc(/C=C/c2ccc3cc(N(C)C)ccc3[n+]2C)c(C)n1-c1ccccc1`: in the data set on LNCaP, the “growth inhibition (GI)” value is “inactive”. On to `c1ccc(-c2csc(N3CCSCC3)n2)cc1`, for which half-maximal inhibition against Androgen receptor [2] (IC50) required 620 nM. As to `Clc1ncn(-c2csc(N3CCOCC3)n2)c1I`, the figures for the IC50 at Androgen receptor [1] and against Androgen receptor [2] were 4020 nM and 2610 nM, respectively. Taken in the same sequence, the figures for `c1ccc(-c2ccc(N3CCOCC3)s2)cc1` were 510 nM and 520 nM. The matching figures for `c1ccc2nc(-c3ccncc3)ccc2c1`: 2260 nM and 4200 nM.

As to `Oc1ccc(-c2nc(-c3c[nH]c4ccccc34)cs2)cc1`, the IC50 on Androgen receptor [1] was 6460 nM; at Androgen receptor [2], 5050 nM.

Take `COc1c(F)cc(O)cc1-c1csc(N2CCOCC2)n1`: 3020 nM corresponded to half-maximal inhibition against Androgen receptor [2] (IC50). The same measure, in the same setting: with `c1cc(-c2csc(N3CCOCC3)n2)ccn1` the figure was 2940 nM; with `CS(=O)(=O)c1c(F)cccc1-c1csc(N2CCOCC2)n1`, 3560 nM. `Cc1cc(C=Cc2ccc3cc(N(C)C)ccc3[n+]2C)c(C)n1-c1ccccc1.O=C([O-])c1cc2ccccc2c(Cc2c(O)c(C(=O)O)cc3ccccc23)c1O`: in data set [3], the Activity entry is listed as “Toxic”. On to `COc1cc(F)ccc1-c1csc(N2CCOCC2)n1`, for which the IC50 on Androgen receptor [1] was 230 nM; at Androgen receptor [2], 300 nM. The matching figures for `Oc1ccc2nc(N3CCOCC3)sc2c1`: 8080 nM and 7410 nM. The matching figures for `c1ccc(-c2csc(N3CCCCC3)n2)cc1`: 690 nM and 1030 nM. Taken in the same sequence, the figures for `CNc1nc(-c2ccc3ccccc3c2)cs1` were 3910 nM and 3170 nM. On to `Brc1cn(-c2csc(N3CCOCC3)n2)cn1`, for which the IC50 on Androgen receptor [1] was 1740 nM; at Androgen receptor [2], 2800 nM. On to `Clc1cn(-c2csc(N3CCOCC3)n2)cn1`, for which the IC50 is 720 nM at Androgen receptor [1] and 960 nM at Androgen receptor [2]. For `c1ccc(-c2csc(-c3ccncc3)n2)cc1`, the IC50 on Androgen receptor [1] turned out to be 630 nM; on Androgen receptor [2], 1200 nM.

For the molecule `Oc1c(F)cccc1-c1csc(N2CCOCC2)n1`, the figures for the IC50 at Androgen receptor [1] and against Androgen receptor [2] were 150 nM and 270 nM, respectively. For `Cc1scc(-c2csc(N3CCOCC3)n2)c1C`, the figures for the IC50 on Androgen receptor [1] and at Androgen receptor [2] were 430 nM and 250 nM, respectively. Turning to `c1cc(-c2csc(N3CCOCC3)n2)cs1`, the results for the IC50 on Androgen receptor [1] and on Androgen receptor [2] were 220 nM and 260 nM, respectively. Taken in the same sequence, the figures for `Cc1ncn(-c2csc(N3CCOCC3)n2)c1C` were 2420 nM and 3560 nM. The matching figures for `Nc1ccccc1-c1csc(N2CCOCC2)n1`: 2030 nM and 1380 nM. In the case of `Ic1ncn(-c2csc(N3CCOCC3)n2)c1I`, the IC50 worked out at 1810 nM on Androgen receptor [1] and 1730 nM at Androgen receptor [2]. Besides, the Stability entry in data set [4] is on record as “Stable”. Consider `Oc1c(-c2csc(N3CCOCC3)n2)ccc(F)c1F`, for which the IC50 on Androgen receptor [1] was found to be 700 nM; at Androgen receptor [2], 800 nM.

On to `FC(F)(F)c1cccc(-c2csc(N3CCOCC3)n2)c1`, for which the IC50 is 580 nM on Androgen receptor [1] and 610 nM at Androgen receptor [2]. `c1ccc(-c2csc(N3CCOCC3)n2)nc1` showed an IC50 against Androgen receptor [2] of 2580 nM. Turning to `COc1c(-c2csc(N3CCOCC3)n2)ccc(F)c1F`, the values for the IC50 on Androgen receptor [1] and on Androgen receptor [2] were 250 nM and 180 nM, respectively.

Consider `Clc1ncn(-c2csc(N3CCOCC3)n2)c1Cl`, for which the figures for the IC50 on Androgen receptor [1] and against Androgen receptor [2] were 570 nM and 680 nM, respectively. Moreover, the Stability entry in data set [4] is recorded as “Stable”.

The molecule `Cc1sc(N2CCOCC2)nc1-c1ccccc1` came in with an IC50 against Androgen receptor [2] of 1460 nM. With `Oc1cc(F)ccc1-c1csc(N2CCOCC2)n1`, the IC50 on Androgen receptor [1] came to 810 nM; against Androgen receptor [2], 1190 nM.

Consider `CCc1sc(N2CCOCC2)nc1-c1ccccc1`, for which the values for the IC50 on Androgen receptor [1] and at Androgen receptor [2] were 8430 nM and 5800 nM, respectively. Taken in the same sequence, the figures for `N#Cc1ccc(-c2ccc(N3CCOCC3)s2)cc1` were 890 nM and 1440 nM. Molecule `Fc1ccc(-c2csc(N3CCSCC3)n2)cc1` came in with a half-maximal inhibitory concentration (IC50) against Androgen receptor [2] of 1590 nM. On the same count and under the same terms, next, `Oc1ccc(-c2ccc3ccccc3n2)cc1`: 9840 nM. As to `Clc1ncn(-c2csc(N3CCOCC3)n2)c1Br`, the IC50 at Androgen receptor [1] amounted to 440 nM; at Androgen receptor [2], 330 nM.
